Entries after “also recorded” stand apart in the source; their conditions may differ.
What was measured:
SAPK/JNK = SAPK/JNK phosphorylation in RN22 cells (western blot); format: cell-based, rat; conditions: 100 ng/ml
Description: (§1) Western Blot Analysis. Subconfluent cells were grown overnight in medium containing 2% FBS and 1% HS and stimulated with 100 ng/ml NGF or the NGF-like small chemicals for the indicated time points. Cells were then washed with cold phosphate-buffered saline (PBS) and briefly sonicated in SDS sample buffer (containing β-mercaptoethanol and 2 mM PMSF). Lysates (200 μg of total proteins) were separated on SDS-PAGE, and transferred to nitrocellulose (Whatman, Dassel, Germany). After blocking with 5% nonfat milk in TBST buffer (10 mM Tris pH 7.5; 150 mM NaCl/0.2% Tween 20), blots were probed overnight at 4° C. with anti-p-TrkA (Tyr 490) antibody (1:1000), anti TrkA antibody (1:1000), anti-p-IκBα (Ser 32/36)(5A5) mouse antibody (1/1000), anti IκBα (L35A5) mouse antibody (1:1000), anti-p-SAPK/JNK (Thr183/Tyr185) antibody (1:1000) or anti-SAPK/JNK antibody (1/1000)(all of them from Cell Signaling), followed by incubation with HRP-conjugated IgG (Jackson ImmunoResearch) for 1 h at room temperature (RT). Detection of phosphorylated species was performed by using the enhanced chemiluminescence (ECL) system (GE Healthcare Bio-Sciences, Piscataway, N.J.).
In several neuronal systems, JNK activation has been causally linked with the induction of programmed cell death (Bhakar et al., 2003). […]

TrkA = biological target: T1, TrkA (Rattus norvegicus, UniProt P35739); experiment: TrkA phosphorylation in PC12 cells (western blot); format: cell-based; conditions: 100 ng/ml, time course
T1 construct: we analyzed their capacity to induce TrkA phosphorylation in PC12 cells; endogenous in cells; host or cells: PC12 cells
T1 sequence (P35739 33-799): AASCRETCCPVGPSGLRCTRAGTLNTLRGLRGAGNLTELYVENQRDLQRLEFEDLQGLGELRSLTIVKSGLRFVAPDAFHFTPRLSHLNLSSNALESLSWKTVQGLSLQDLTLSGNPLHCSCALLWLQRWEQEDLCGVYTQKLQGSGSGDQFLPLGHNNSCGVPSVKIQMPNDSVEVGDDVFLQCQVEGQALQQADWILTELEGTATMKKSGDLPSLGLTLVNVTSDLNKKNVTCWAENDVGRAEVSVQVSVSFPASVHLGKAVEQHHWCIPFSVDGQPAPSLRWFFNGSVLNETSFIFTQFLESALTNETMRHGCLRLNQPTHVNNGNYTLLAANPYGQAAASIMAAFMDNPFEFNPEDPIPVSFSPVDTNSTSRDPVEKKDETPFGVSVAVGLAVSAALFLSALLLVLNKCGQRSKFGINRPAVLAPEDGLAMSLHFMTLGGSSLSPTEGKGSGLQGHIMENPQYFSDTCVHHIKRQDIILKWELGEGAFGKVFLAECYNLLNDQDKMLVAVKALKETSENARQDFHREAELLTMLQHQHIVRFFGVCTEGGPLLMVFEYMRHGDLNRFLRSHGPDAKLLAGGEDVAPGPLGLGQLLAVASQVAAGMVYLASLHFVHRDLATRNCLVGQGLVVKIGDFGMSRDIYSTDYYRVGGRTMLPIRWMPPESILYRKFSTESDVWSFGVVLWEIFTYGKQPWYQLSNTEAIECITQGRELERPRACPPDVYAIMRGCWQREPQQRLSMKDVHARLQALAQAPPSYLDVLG
Description: Activation of TrkA is the first event in the signalling cascade leading to differentiation and survival of NGF responsive neurons and PC12 cells (Greene and Tischler, 1976; Chao, 2003; Huang and Reichardt, 2003). To evaluate whether the neurotrophic activity of NGF-like peptoids was mediated by the interaction with TrkA receptor, we analyzed their capacity to induce TrkA phosphorylation in PC12 cells. The activity of peptoids was tested in the range of concentrations that were effective on PC12 cells differentiation.
Western Blot Analysis. Subconfluent cells were grown overnight in medium containing 2% FBS and 1% HS and stimulated with 100 ng/ml NGF or the NGF-like small chemicals for the indicated time points. Cells were then washed with cold phosphate-buffered saline (PBS) and briefly sonicated in SDS sample buffer (containing β-mercaptoethanol and 2 mM PMSF). Lysates (200 μg of total proteins) were separated on SDS-PAGE, and transferred to nitrocellulose (Whatman, Dassel, Germany). […]

IκBα = IκBα phosphorylation / NF-κB pathway activation in PC12 and RN22 cells (western blot); format: cell-based, rat; conditions: 100 ng/ml
Description: as §1
To investigate whether our NGF-like small chemicals activate p75 we analyzed the activation of the NF-κB pathway (Bonizzi G, Karin M. 2004) and the SAPK/JNK pathway (cell death) in PC12 and RN22 cell lines. […]

C57BL/6 EAE mice = experiment: Experimental autoimmune encephalomyelitis (EAE) clinical score; format: in vivo; conditions: daily intraperitoneal
Description: Trials were approved by the Parc Cientific de Barcelona Committee on Animal Care. Female C57BL/6 mice from Harlan (8-12 weeks old) were immunized subcutaneously in both hind pads with 300 μg of myelin oligodendrocyte glycoprotein (MOG) peptide 35-55 (Spikem, Firenze) emulsified with 50 μg of Mycobacterium tuberculosis (H37Ra strain; Difco, Detroit, Mich.) in incomplete Freund's adjuvant (IFA) as previously described (Adams et al. 2007). Mice were intraperitoneally injected with Pertussis toxin (Sigma)(500 ng) at the time of immunization and 2 days later. Animals were weighted and inspected for clinical signs of disease on a daily basis by a blinded observer. Disease severity of EAE was assessed according to the following scale: 0=normal; 0.5=mild limp tail; 1=limp tail; 2=mild parapesis of the hind limbs, unsteady gait; 3=moderate parapesis, voluntary movements still possible; 4=paraplegia or tetraparesis; 5=moribund state. Data shown for the clinical studies are representative of two independent experiments performed with the indicated number of animals (Moreno et al., 2006).
(§2) The agonist molecules selected for the animal studies, N35-4-8C, N6-4-17C and N35-4-17C, were prepared in water with 5% DMSO. Animals were treated with the agonist molecule (25, 50 and 100 mg/kg) or placebo (water+5% DMSO) through daily intraperitoneal injection starting after immunization. At the end of the study, mice were anesthetized and perfused intracardially with 4% of paraformaldehyde in 0.1M phosphate buffer (pH 7.6). Brains, spinal cords and spleens were dissected and either fixed or frozen until use. Serum was obtained from all animals included in the study, and transaminases levels were measured.
In order to evaluate the effects of the NGF-like peptoids “in vivo”, we studied the effect of the NGF-mimetic peptoids in the animal model of MS. C57BL/6 mice immunized with MOG35-55 peptide were treated daily with N35-4-8C, N6-4-17C and N35-4-17C intraperitoneally from day 0 to day 25 at a different concentrations of the compound. N35-4-8C was tested at 3 different concentrations selected in base to previous experiments using agonist molecules in animal models: 25 mg/kg, 50 mg/kg and 100 mg/kg. […] N35-4-17C was also tested at the same concentrations. […] Moreover, the treatment had higher clinical scores with a clear worsening in the progression of the disease (FIG. 4C).

PC12 cells = experiment: PC12 cell differentiation (neurite outgrowth); format: cell-based, rat; conditions: 3 days, peptoids 2 ng/ml to 50 μg/ml, reduced serum (0.5% FBS and 1% HS); compared with NGF 100 ng/ml
Description: PC 12 cell differentiation was measured by plating cells onto collagen-coated 24-wells plates. NGF (100 ng/ml) or the small chemicals at different concentrations were added and the percentage of cells with neurite processes greater than two cell bodies in length were counted after relevant treatment. For each experiment at least 300 cells were randomly measured (Burstein and Greene, 1978).
PC12 cells were maintained at 37° C. in DMEM supplemented with 2.5% FBS, 15% of Horse serum (HS) and penicillin/streptomycin in a humidified 5% CO2 incubator. The cells were grown on 60- and 100-mm tissue culture dishes (Becton Dickinson).
PC 12 cells were cultured for 3 days in the presence of the peptoids (from 2 ng/ml to 50 μg/ml) under reduced serum conditions (0.5% FBS and 1% HS).

[1] = Serum transaminases levels in treated EAE mice; format: in vivo; conditions: daily intraperitoneal treatment, N35-4-17C at the higher concentrations
Description: as §2

RN22 cells = experiment: RN22 cell survival under CuSO4 stress (MTT); format: cell-based, rat; conditions: CuSO4 150 μM, 24 h, peptoids 1 ng/ml-10 μg/ml; compared with NGF 100 ng/ml
Description: The library was also tested to assess their capacity to promote cell survival of myelin producing cells. To delineate p75 signalling independent of TrkA, we used a rat schwannoma cell line (RN22) expressing p75, but not TrkA, (Gentry et al., 2000).
The rat schawnnoma cell line RN22 was cultured in 5% CO2 at 37° C. in Dulbecco's modified Eagle's medium (DMEM) with 10% fetal bovine serum (FBS) and penicillin/streptomycin.
RN22 cells were plated at 20,000 cells/well on a 24-well plate in DMEM alone and after allowing the cells to adhere for 3 days, cupper sulphate (CuSO4) (150 μM) was added with or without NGF (100 ng/ml) or the peptoids N35-4-8C, N6-4-17C and N35-4-17C at different concentrations (1 ng/ml-10 μg/ml) to generate stress and cell death. After 24 h cell viability was studied by determining the amount of yellow MTT (Sigma) that was reduced to insoluble purple formazan. After removing the medium, the water-insoluble formazan was solubilised with DMSO (Sigma), and the dissolved material was measured spectrophotometrically at a wavelength of 570 nm, subtracting the background at 650 nm (Frade, 2005).

| Molecule | activation of the JNK pathway (phosphorylation of SAPK/JNK) (SAPK/JNK) | time of maximal TrkA phosphorylation (TrkA) [min] | time after addition at which p-IκBα levels were increased (IκBα) [min] | EAE clinical severity (C57BL/6 EAE mice; any of the concentrations tested (25, 50, 100 mg/kg), 26 days observation) | differentiation of PC12 cells (PC12 cells) | transaminases levels in serum [1] | survival of RN22 cells (cell viability, MTT) (RN22 cells) | EAE clinical severity (C57BL/6 EAE mice; 25 mg/kg, day 0 to day 25) | EAE clinical symptoms (C57BL/6 EAE mice; higher concentrations (50 and 100 mg/kg)) |
| --- | --- | --- | --- | --- | --- | --- | --- | --- | --- |
| NGF: homodimeric protein from the neurotrophin family; used as positive control at 100 ng/ml | obvious | 30 | ≤ 5 | – | – | – | – | – | – |
| CC(C)CCN(CC(=O)N(CCc1ccc(S(N)(=O)=O)cc1)CC(N)=O)C(=O)CNCCN1CCCC1 [N6-4-17C, [N-(2-(1-Pyrrolidinyl)ethyl)glycyl]-[N-(3-methylbutyl)glycyl]-N-[2-(4′-sulfamoylphenyl)ethyl]glycinamide] | – | – | – | not effective in reducing the clinical severity of EAE; also recorded: no effects in EAE | induce the differentiation of PC12 cells at different concentrations to an extent substantially comparable with that induce by NGF | elevated transaminases levels | promote survival of RN22 cells | – | – |
| CC(C)CCN(CC(=O)N(CCc1ccc(S(N)(=O)=O)cc1)CC(N)=O)C(=O)CNCCc1ccccc1F [N35-4-17C, [N-(2-(2′-Fluorophenyl)ethyl)glycyl]-[N-(3-methylbutyl)glycyl]-N-[2-(4′-sulfamoylphenyl)ethyl]glycinamide] | – | – | – | – | induce the differentiation of PC12 cells at different concentrations to an extent substantially comparable with that induce by NGF | elevated transaminase levels | promote survival of RN22 cells | prevents significantly the development of clinical symptoms in EAE | toxic effect worsening the development of the clinical symptoms |

Source: patent publication US20120237552A1, “Peptoid Agonists of Nerve Growth Factor and Their Use as Medicaments” (priority 2009, published 2012)
